From patent US20200239530A1, “COMPOUNDS AND METHODS OF MODULATING PROTEIN DEGRADATION” (Vividion Therapeutics, Inc., priority 2017, published 2020) come the findings set out here.

In assay [1] the target is T1, HERC5 E3 ISG15--protein ligase HERC5 (Homo sapiens, UniProt Q9UII4).
T1 construct: Cells were resuspended in cold PBS on ice and sonicated with a probe sonicator to achieve lysis; endogenous in cells
T1 sequence (Q9UII4 1-1024): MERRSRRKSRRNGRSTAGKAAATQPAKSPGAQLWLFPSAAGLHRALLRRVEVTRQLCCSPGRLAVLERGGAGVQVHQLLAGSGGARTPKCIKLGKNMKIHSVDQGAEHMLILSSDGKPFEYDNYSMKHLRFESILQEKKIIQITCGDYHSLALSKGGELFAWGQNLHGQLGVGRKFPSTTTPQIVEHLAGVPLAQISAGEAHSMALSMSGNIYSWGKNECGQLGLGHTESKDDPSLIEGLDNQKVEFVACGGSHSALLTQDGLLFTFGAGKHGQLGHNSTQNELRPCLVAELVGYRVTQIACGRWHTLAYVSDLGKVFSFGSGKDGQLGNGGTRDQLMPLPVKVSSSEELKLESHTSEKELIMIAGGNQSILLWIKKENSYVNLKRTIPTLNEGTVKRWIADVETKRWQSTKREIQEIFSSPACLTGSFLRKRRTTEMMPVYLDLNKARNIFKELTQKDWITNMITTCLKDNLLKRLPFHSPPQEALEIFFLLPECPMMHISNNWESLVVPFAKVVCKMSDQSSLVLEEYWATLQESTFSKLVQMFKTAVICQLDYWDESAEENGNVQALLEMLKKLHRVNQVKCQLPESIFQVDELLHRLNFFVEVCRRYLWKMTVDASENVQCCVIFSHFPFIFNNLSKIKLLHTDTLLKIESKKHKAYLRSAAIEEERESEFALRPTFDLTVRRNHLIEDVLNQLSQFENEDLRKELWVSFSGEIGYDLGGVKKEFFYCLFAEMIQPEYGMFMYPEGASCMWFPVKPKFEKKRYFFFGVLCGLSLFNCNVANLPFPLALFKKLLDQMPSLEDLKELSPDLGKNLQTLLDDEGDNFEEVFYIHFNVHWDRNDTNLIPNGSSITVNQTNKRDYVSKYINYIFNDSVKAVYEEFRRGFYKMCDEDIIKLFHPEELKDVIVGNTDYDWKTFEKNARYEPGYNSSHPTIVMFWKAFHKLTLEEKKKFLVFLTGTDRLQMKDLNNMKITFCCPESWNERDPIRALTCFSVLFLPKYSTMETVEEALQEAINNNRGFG
Nature of the assay: Cysteine liganding, probe competition. As to conditions: for Liganded: HERC5 Res# 994, uniprot Q9UII4. The format is binding. The procedure, abridged: (§1)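 Read-out is loss of desthiobiotin iodoacetamide labelling at cysteines, measured on streptavidin-enriched tryptic peptides. Compound preincubation ran 1 hr at 25° C in PBS lysate holding 5 mg/ml proteome before the probe was added.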

Assay [2] concerns the target T2, RING1 E3 ubiquitin-protein ligase RING1 (Homo sapiens, UniProt Q06587).
T2 construct: Cells were resuspended in cold PBS on ice and sonicated with a probe sonicator to achieve lysis; endogenous in cells
T2 sequence (Q06587 1-406): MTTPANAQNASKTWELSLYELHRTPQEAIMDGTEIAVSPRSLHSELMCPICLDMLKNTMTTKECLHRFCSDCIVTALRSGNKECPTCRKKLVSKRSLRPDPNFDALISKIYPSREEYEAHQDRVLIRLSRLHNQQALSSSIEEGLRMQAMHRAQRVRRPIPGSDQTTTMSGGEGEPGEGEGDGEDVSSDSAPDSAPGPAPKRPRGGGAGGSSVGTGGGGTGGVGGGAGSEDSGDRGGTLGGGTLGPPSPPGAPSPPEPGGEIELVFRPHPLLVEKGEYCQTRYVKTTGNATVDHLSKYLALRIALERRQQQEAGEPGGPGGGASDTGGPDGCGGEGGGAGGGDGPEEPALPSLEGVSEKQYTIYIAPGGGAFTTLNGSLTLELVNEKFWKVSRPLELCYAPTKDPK
Nature of the assay: Cysteine liganding, probe competition. The class given is binding. Summed up:
as §1

As to `O=C(CCl)Nc1cc(C(F)(F)F)cc(C(F)(F)F)c1` [KBO3], in assay [1], the Liganded result was “YES”. In addition, in assay [1] (uniprot Q9UII4), the “100 Max” value turned out to be 83.4, the 100 ave came out at 83.4, the “500 Max” value was determined as 96.8 and the 500 ave was determined as 96.8. For the same compound, in assay [2] (RING1 Res# 51, uniprot Q06587), the Liganded entry is reported as “YES”. Further, in assay [2] (RING1 Res# 72, uniprot Q06587), the Liganded entry was “YES”. In assay [2] (uniprot Q06587), the “100 Max” value is recorded as 18.1 and the 100 ave was determined as 0.5.
As to `COc1ccc2c(c1)CCCN2C(=O)CCl` [KB02], the Liganded entry in assay [1] is “YES”; in assay [2] (RING1 Res# 72, uniprot Q06587) it was “YES”.
